{
  "source": "patent US6906108B2",
  "about": "“Extracts of vetiver oil as repellent and toxicant to ants, ticks, and cockroaches” (Board of Supervisors of Louisiana State University and …, priority 2001, dated 2005)",
  "key": {"[1]": {"tested_on": "German cockroaches (Blattella germanica)", "experiment": "German cockroach Petri dish filter paper bioassay (repellency and toxicity)", "type": "in vivo", "protocol": "To test the efficacy of nootkatone against cockroaches, German cockroaches (Blattella germanica) were collected at Baton Rouge, La., the same day as the bioassay was begun.\nFor the bioassay, Petri dishes (10 cm diameter×1 cm) were used. The Petri dishes were prepared by lining one half of the top and one half of the bottom with a half circle of filter paper (125 mm), and lining the other half with a second half circle of filter paper. For the treated Petri dishes, 50 mg nootkatone and 300 mg REPEL® were dissolved in 2.0 ml ethanol. To each Petri dish was added either ethanol only, 30 mg Deet, 1 mg nootkatone, or 10 mg nootkatone. Ten replicate Petri dishes were used for each of the treatments. The ethanol solution was added to the filter paper on the top and bottom and dried for 10 min. One cockroach was added to each Petri dish. The length of the cockroaches varied from 1 to 1.5 cm. The dishes were then observed at 15 min, 30 min, 1 hr, 2 hr, 3 hr, 4 hr, 5 hr, 24 hr, 48 hr, and 120 hr."}, "[2]": {"tested_on": "ticks (Ixodes scapularis)", "experiment": "Tick Petri dish bioassay with treated sand (repellency and toxicity)", "type": "in vivo", "protocol": "To test the effectiveness of nootkatone against ticks, ticks (Ixodes scapularis) were collected from Idlewild, La. Nootkatone efficiacy was tested relative to a known repellent, N,N-diethyl-m-toluamide (“Deet”). REPEL®, which contains 27.55% Deet, was purchased locally from a retail garden store.\nThe bioassay was conducted using Petri dishes (5 cm diameter and 1 cm height). To ensure adequate moisture for the ticks, 1 ml of a hot agar solution (1.5% in H2O) was spread evenly on the inside surfaces of the Petri dish, including the top, bottom, and edges. After the agar cooled, sand that was treated as described below was spread evenly on the inside surfaces of the Petri dish. The sand was held in place by the agar.\nFor the treated sand, either 2 mg nootkatone or 100 mg REPEL® was initially dissolved in 2 ml ethanol, and then 200 μl of the solution was mixed with 2 g sand that had been autoclaved and cooled. The control was autoclaved sand with 200 μl ethanol only added. One half of the surfaces in the Petri dishes were covered with 2 g treated sand, and the other half with 2 g untreated sand. In the nootkatone-treated Petri dishes, the final concentration was 200 μg/dish; while in the Deet treated Petri dishes, the final concentration was 2.75 mg/dish. Control Petri dishes were prepared by covering all sides with untreated sand. One tick was added to each Petri dish, and the top replaced. The number of replicates were as follows: control, 6; nootkatone, 9; and Deet, 8. […] Repellent activity was noted if the tick was found on the untreated side of the Petri dish. The ticks in the control Petri dishes were randomly distributed on the left and right sides.\nThe above experiment was repeated with ticks (Ix. scapularis) collected from Hammond, La. The number of replicates in this experiment were as follows: controls, 8; nootkatone, 10; and Deet, 8."}, "[3]": {"conditions": "200 μg/dish vs 2.75 mg/dish Deet"}, "[4]": {"conditions": "200 μg/dish, 10 replicates, ticks from Hammond"}, "[5]": {"conditions": "200 μg/dish, ticks from Hammond"}},
  "data": [
    {"smiles": "C=C(C)C1CCC2=CC(=O)CC(C)C2(C)C1", "note": "(stereo not drawn) [nootkatone, 4,4a,5,6,7,8-hexahydro-6-isopropenyl-4,4a-dimethyl-2(3H)-naphthalone]", "values": [
      {"measurement": "Repellent activity against the cockroaches", "setting": "[1]; 1 mg per dish", "result": "weak repellent"},
      {"measurement": "Percent Repellency", "setting": "[1]; 1 mg per dish, 30 min", "result": 70, "unit": "%"},
      {"measurement": "Percent Repellency", "setting": "[1]; 1 mg per dish, 1 hr", "result": 60, "unit": "%"},
      {"measurement": "Percent Repellency", "setting": "[1]; 1 mg per dish, 2 hr", "result": 50, "unit": "%"},
      {"measurement": "Percent Repellency", "setting": "[1]; 1 mg per dish, 3 hr", "result": 78, "unit": "%"},
      {"measurement": "Percent Repellency", "setting": "[1]; 1 mg per dish, 4 hr", "result": 78, "unit": "%"},
      {"measurement": "Percent Repellency", "setting": "[1]; 1 mg per dish, 5 hr", "result": 78, "unit": "%"},
      {"measurement": "Percent Repellency", "setting": "[1]; 1 mg per dish, 24 hr", "result": 56, "unit": "%"},
      {"measurement": "Percent Repellency", "setting": "[1]; 1 mg per dish, 48 hr", "result": 78, "unit": "%"},
      {"measurement": "Percent Repellency", "setting": "[1]; 1 mg per dish, 120 hr", "result": 100, "unit": "%"},
      {"measurement": "Percent Repellency", "setting": "[1]; 10 mg per dish, 30 min", "result": 90, "unit": "%"},
      {"measurement": "Percent Repellency", "setting": "[1]; 10 mg per dish, 1 hr", "result": 100, "unit": "%"},
      {"measurement": "Percent Repellency", "setting": "[1]; 10 mg per dish, 2 hr", "result": 100, "unit": "%"},
      {"measurement": "Percent Repellency", "setting": "[1]; 10 mg per dish, 3 hr", "result": 100, "unit": "%"},
      {"measurement": "Percent Repellency", "setting": "[1]; 10 mg per dish, 4 hr", "result": 100, "unit": "%"},
      {"measurement": "Percent Repellency", "setting": "[1]; 10 mg per dish, 5 hr", "result": 100, "unit": "%"},
      {"measurement": "Percent Repellency", "setting": "[1]; 10 mg per dish, 24 hr", "result": 100, "unit": "%"},
      {"measurement": "Percent Repellency", "setting": "[1]; 10 mg per dish, 48 hr", "result": 100, "unit": "%"},
      {"measurement": "Percent Repellency", "setting": "[1]; 10 mg per dish, 120 hr", "result": 100, "unit": "%"},
      {"measurement": "Number of cockroach deaths compared with the control", "setting": "[1]; any of the treatments (30 mg Deet; 1 mg or 10 mg nootkatone), up to 120 hr", "result": "not significantly different from the control"},
      {"measurement": "Overall activity against ticks", "setting": "[2]; 200 μg/dish", "result": "effective repellent and toxicant"},
      {"measurement": "Duration of repellent activity compared with Deet", "setting": "[2]; [3]", "result": "longer than Deet"},
      {"measurement": "Toxicant strength compared with Deet", "setting": "[2]; [3]", "result": "stronger toxicant than Deet"},
      {"measurement": "Ticks dead after 90 hr (number)", "setting": "[2]; 200 μg/dish, 9 replicates, one tick per dish, ticks from Idlewild", "result": "four"},
      {"measurement": "Ticks dead at 24 hr (number)", "setting": "[2]; [4]", "result": "one"},
      {"measurement": "Ticks dead at 72 hr (number)", "setting": "[2]; [4]", "result": "four"},
      {"measurement": "Ticks dead at 96 hr (number)", "setting": "[2]; [4]", "result": "nine"},
      {"measurement": "Ticks dead at 72 hr (percent)", "setting": "[2]; [5]", "result": 40, "unit": "%"},
      {"measurement": "Ticks dead at 96 hr (percent)", "setting": "[2]; [5]", "result": 90, "unit": "%"},
      {"measurement": "Ticks dead after 90 hr (percent)", "setting": "[2]; 200 μg/dish, ticks from Idlewild", "result": 50, "unit": "%"}
    ]}
  ]
}
